Source: US9505736B2, “Histone deacetylase inhibitors and compositions and methods of use thereof” (CHDI Foundation, Inc., priority 2012, dated 2016)

Legend:
[1] = test system: cellular histone deacetylase enzymatic activity in Jurkat E6-1 cells; experiment: Inhibition of cellular HDAC activity in Jurkat E6-1 cells, Class IIa selective substrate Boc-Lys(Tfa)-AMC; format: cell-based; conditions: Homo sapiens
Procedure: Analysis of Inhibition of Cellular HDAC Activity with Class IIa Histone Deacetylase (HDAC) Inhibitors
After penetration in Jurkat E6-1 cells, the substrate is deacetylated to Boc-Lys-AMC. After cell lysis and cleavage by trypsin, the fluorophore AMC is released from the deacetylated substrate only. The fluoresence of the sample is directly related to the histone deacetylase activity in the sample.
Jurkat E6.1 Cell Culture and Plating.
Jurkat E6.1 cells are cultured according to standard cell culture protocols in Jurkat E6.1 Growth Media (RPMI without phenol red, 10% FBS, 10 mM HEPES, and 1 mM Sodium Pyruvate). Jurkat E6.1 cells are counted using a Coulter Counter and resuspended in Jurkat E6.1 growth media at a concentration of 75,000 cells/35 μl. 35 μl or 75,000 cells is seeded into Greiner microtitre assay plates. The plates are then incubated at 37° C. and 5% CO2 while other assay components are being prepared.
(§1) Serially Dilute HDAC Inhibitor Compounds.
(§2) Stocks of 70 μl aliquots of the 10 mM compound in DMSO are prepared and stored at −20° C. From one stock aliquot of each compound to be tested and the reference compound, a 16-point serial dilution is prepared according to Table 1 using a 125 μl 16-channel Matrix multi-channel pipette.
2 μl (200×) of each diluted solution and each control (full activity: 100% DMSO alone or full inhibition 1 mM) is stamped into V-bottom polypropylene 384-well compound plates using either the Bravo, Janus, or 12.5 μl 16-channel Matrix multi-channel pipette. Each well with the 200× compound solution is diluted 1:20 by the addition of 38 μl Jurkat assay buffer+DMSO (9.5% DMSO, RPMI without phenol red, 0.09% FBS, 9 mM Hepes, and 0.9 mM Sodium Pyruvate equilibrated to room temperature)
Prepare 5× (500 μM) Boc-Lys(Tfa)-AMC Substrate.
5× (500 μM) substrate is prepared just prior to the addition to the assay. The 5× substrate is prepared by diluting a 100 mM Boc-Lys(Tfa)-AMC in DMSO solution 1:200 by adding it drop-wise to Jurkat assay medium (RPMI without phenol red, 0.1% FBS, 10 mM Hepes, and 1 mM Sodium Pyruvate equilibrated to 37° C.) while vortexing at slow speed to prevent precipitation.
10 ml of 3× lysis buffer is prepared with 8.8 ml of 3× stock lysis buffer (50 mM Tris-HCl, pH 8.0, 137 mM NaCl, 2.7 mM KCl, 1 mM MgCl2, 1% Nonidet P40 Substitute equilibrated to room temperature) and 1.2 ml of 3 mg/ml Trypsin equilibrated to room temperature.
5 μl of each solution of 1:20 diluted compound from above is transferred to the Greiner microtitre assay plates with 75,000 cells/well using the Bravo. Cells are then incubated for 2 hours at 37° C. and 5% CO2. The assay is then started by adding 10 μl of 5× (500 μM) substrate to the assay plate using either the Bravo or 16-channel Matrix multi-channel pipette. The cells are then incubated for 3 hours at 37° C. and 5% CO2. Next, 25 μl of 3× lysis buffer is added to each well using either the 125 μl 16 channel pipette or the Bravo. The assay plate is then incubated overnight (15-16 hours) at 37° C. and 5% CO2. The following day, the plates are shaken on an orbital shaker for 1 minute at 900 rpm. Finally the top read fluorescence (Excitation: 355 nm, Emission: 460 nm) is measured using PerkinElmer EnVision.

[2] = molecular target: human catalytic domain HDAC4 protein (Homo sapiens, UniProt P56524, A743G/DEL730-739/DEL742-742); experiment: Inhibition of HDAC4 catalytic domain enzymatic activity, Boc-Lys(Tfa)-AMC substrate, fluorescence; conditions: read-out: Biochemical HDAC-4 IC50
human catalytic domain HDAC4 protein, sequence (P56524 with tags, fused parts or gaps A743G/DEL730-739/DEL742-742): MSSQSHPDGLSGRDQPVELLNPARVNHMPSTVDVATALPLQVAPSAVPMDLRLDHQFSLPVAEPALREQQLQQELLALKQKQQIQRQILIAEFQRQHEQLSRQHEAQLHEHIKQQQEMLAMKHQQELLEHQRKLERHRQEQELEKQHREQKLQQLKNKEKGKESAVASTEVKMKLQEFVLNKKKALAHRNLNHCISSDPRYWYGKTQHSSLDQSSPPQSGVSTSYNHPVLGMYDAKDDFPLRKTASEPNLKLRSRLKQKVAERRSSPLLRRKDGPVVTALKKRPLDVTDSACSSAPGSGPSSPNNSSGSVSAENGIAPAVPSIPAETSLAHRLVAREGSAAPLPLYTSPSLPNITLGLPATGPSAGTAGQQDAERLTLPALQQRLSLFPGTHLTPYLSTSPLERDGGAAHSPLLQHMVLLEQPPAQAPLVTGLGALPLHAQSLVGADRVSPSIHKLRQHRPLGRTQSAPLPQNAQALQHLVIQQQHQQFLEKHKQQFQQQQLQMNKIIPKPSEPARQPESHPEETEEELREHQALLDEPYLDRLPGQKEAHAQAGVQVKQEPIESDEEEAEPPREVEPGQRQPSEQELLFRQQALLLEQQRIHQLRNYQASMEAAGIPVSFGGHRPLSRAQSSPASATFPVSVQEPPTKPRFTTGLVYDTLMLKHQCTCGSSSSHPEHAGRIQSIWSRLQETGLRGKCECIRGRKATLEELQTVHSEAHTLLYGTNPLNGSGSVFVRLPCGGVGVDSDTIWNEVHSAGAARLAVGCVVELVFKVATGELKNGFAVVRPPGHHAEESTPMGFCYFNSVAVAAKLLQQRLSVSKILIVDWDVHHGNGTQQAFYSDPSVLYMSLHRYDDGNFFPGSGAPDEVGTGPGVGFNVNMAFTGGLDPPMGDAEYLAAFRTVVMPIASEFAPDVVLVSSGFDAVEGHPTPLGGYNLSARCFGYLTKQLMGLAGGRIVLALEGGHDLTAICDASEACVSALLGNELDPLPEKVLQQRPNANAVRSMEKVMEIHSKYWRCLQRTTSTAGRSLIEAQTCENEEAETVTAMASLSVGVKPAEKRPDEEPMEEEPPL
Procedure: Analysis of Inhibition of HDAC4 with Class IIa Histone Deacetylase (HDAC) Inhibitors
The substrate is deacetylated to Boc-Lys-AMC by HDAC4. Cleavage by trypsin results in the release of the fluorophore AMC from the deacetylated substrate. The fluorescence of the sample is directly related to the histone deacetylase activity in the sample.
as §1
as §2, with “60” for “70”, “pipette (Matrix Technologies Ltd).” for “pipette.”
2 μl (200×) of each diluted solution and each control (full activity: 100% DMSO alone or full inhibition 1 mM) is stamped into V-bottomed polypropylene 384-well compound plates using either the Bravo (384-well head from Agilent) or 12.5 μl 16-channel Matrix multi-channel pipette (Matrix Technologies Ltd).
Prepare HDAC4 Catalytic Domain Enzyme (0.86 μg/ml).
Prepare 5× (50 NM) Boc-Lys(Tfa)-AMC Substrate.
5× (50 μM) substrate is prepared just prior to the addition to the assay. A 1 mM substrate stock is made by diluting a 100 mM Boc-Lys(Tfa)-AMC in DMSO solution 1:100 by adding it drop-wise to assay buffer (equilibrated to room temperature) while vortexing at slow speed to prevent precipitation. The 5× substrate is prepared by diluting the 1 mM substrate solution 1:20 by adding it drop-wise to assay buffer (equilibrated to room temperature) while vortexing at slow speed to prevent precipitation.
Prepare 3× (30 NM) Developer/Stop Solution.
5 μl of each solution of 1:20 diluted compound from above is transferred to a clear bottomed, black, 384-well assay plate using the Bravo or the Janus (384-well MDT head from Perkin Elmer). Using a 16-channel Matrix multi-channel pipette, 35 μl of the working solution of HDAC4 catalytic domain enzyme (0.86 μg/ml in assay buffer) is transferred to the assay plate. The assay is then started by adding 10 μl of 5× (50 μM) substrate to the assay plates using either the Bravo, Janus or 16-channel Matrix multi-channel pipette. The assay plate is then shaken for two minutes on an orbital shaker at 900 rpm (rotations per minute). Next the plate is incubated for 15 minutes at 37° C. The reaction is stopped by adding 25 μl of 3× (30 μM) developer/stop solution to the assay plates using either the Bravo, Janus or a 16-channel Matrix multi-channel pipette. Assay plates are then shaken for 5 minutes on an orbital shaker at 1200 rpm. Next, the assay plates are incubated at 37° C. for 1 hour in a tissue culture incubator.

Structure (SMILES) | IC50 [1] | IC50 [2]
O=C(NO)[C@@]1(F)[C@H](c2ccccc2)[C@H]1c1ccnc(C2CC2)c1 (racemic) [(1R*,2S*,3S*)-2-(2-Cyclopropylpyridin-4-yl)-1-fluoro-N-hydroxy-3-phenylcyclopropanecarboxamide] | > 50 µM | > 50000 nM
O=C(NO)[C@@]1(F)[C@H](c2ccccc2)[C@H]1c1ccc(-c2cnc(C3CC3)o2)cc1 (racemic) [(1R*,2S*,3S*)-2-(4-(2-Cyclopropyloxazol-5-yl)phenyl)-1-fluoro-N-hydroxy-3-phenylcyclopropanecarboxamide] | 28 µM | 4650 nM
O=C(NO)[C@@]1(F)[C@H](c2ccccc2)[C@H]1c1cc(Cl)c2c(c1)OCCO2 (racemic) [(1R*,2S*,3S*)-2-(8-Chloro-2,3-dihydrobenzo[b][1,4]dioxin-6-yl)-1-fluoro-N-hydroxy-3-phenylcyclopropanecarboxamide] | 40 µM | 6470 nM
O=C(NO)[C@]1(F)[C@H](c2ccccc2)[C@H]1c1ccc(-c2cnc(C3CC3)o2)cc1 (racemic) [(1S*,2S*,3S*)-2-(4-(2-Cyclopropyloxazol-5-yl)phenyl)-1-fluoro-N-hydroxy-3-phenylcyclopropanecarboxamide] | 0.31 µM | 20 nM
O=C(NO)[C@]1(F)[C@H](c2ccccc2)[C@H]1c1ccc(Br)cc1 (racemic) [(1S*,2S*,3S*)-2-(4-Bromophenyl)-1-fluoro-N-hydroxy-3-phenylcyclopropanecarboxamide] | 0.87 µM | 60 nM
Cc1cnc(-c2ccc([C@H]3[C@H](c4ccccc4)[C@]3(Cl)C(=O)NO)cc2)nc1 [(1R,2R,3R)-1-Chloro-N-hydroxy-2-(4-(5-methylpyrimidin-2-yl)phenyl)-3-phenylcyclopropanecarboxamide] | 15.3 µM | –
O=C(NO)[C@@]1(F)[C@@H](c2ccccc2)[C@@H]1c1ccc(-c2ncc(F)cn2)cc1 [(1R,2R,3R)-1-Fluoro-2-(4-(5-fluoropyrimidin-2-yl)phenyl)-N-hydroxy-3-phenylcyclopropanecarboxamide] | 4.5 µM | –
Cc1cnc(-c2ccc([C@H]3[C@H](c4ccccc4)[C@]3(F)C(=O)NO)cc2)nc1 [(1R,2R,3R)-1-Fluoro-N-hydroxy-2-(4-(5-methylpyrimidin-2-yl)phenyl)-3-phenylcyclopropanecarboxamide] | 8.9 µM | –
O=C(NO)[C@@]1(F)[C@@H](c2ccccc2)[C@@H]1c1ccc(-c2nccc(C(F)(F)F)n2)cc1 [(1R,2R,3R)-1-Fluoro-N-hydroxy-2-phenyl-3-(4-(4-(trifluoromethyl)pyrimidin-2-yl)phenyl)cyclopropanecarboxamide] | > 50 µM | –
O=C(NO)[C@@]1(F)[C@@H](c2ccccc2)[C@@H]1c1ccc(-c2ncc(OC(F)F)cn2)cc1 [(1R,2R,3R)-2-(4-(5-(Difluoromethoxy)pyrimidin-2-yl)phenyl)-1-fluoro-N-hydroxy-3-phenylcyclopropanecarboxamide] | > 50 µM | –
O=C(NO)[C@]1(F)[C@H](c2ccccc2)[C@H]1c1cnc(-c2ccc(F)cc2)s1 [(1S,2R,3S)-1-Fluoro-2-(2-(4-fluorophenyl)thiazol-5-yl)-N-hydroxy-3-phenylcyclopropanecarboxamide] | 0.69 µM | 60 nM
Cc1cnc(-c2ccc([C@@H]3[C@@H](c4ccccc4)[C@@]3(F)C(=O)NO)cc2)nc1 [(1S,2S,3S)-1-Fluoro-N-hydroxy-2-(4-(5-methylpyrimidin-2-yl)phenyl)-3-phenylcyclopropanecarboxamide] | 0.12 µM | –
O=C(NO)[C@]1(F)[C@H](c2ccccc2)[C@H]1c1ccc(-c2nccc(C(F)(F)F)n2)cc1 [(1S,2S,3S)-1-Fluoro-N-hydroxy-2-phenyl-3-(4-(4-(trifluoromethyl)pyrimidin-2-yl)phenyl)cyclopropanecarboxamide] | 0.26 µM | –
O=C(NO)[C@]1(F)[C@H](c2ccccc2)[C@H]1c1ccc(-c2ncc(OC(F)F)cn2)cc1 [(1S,2S,3S)-2-(4-(5-(Difluoromethoxy)pyrimidin-2-yl)phenyl)-1-fluoro-N-hydroxy-3-phenylcyclopropanecarboxamide] | 0.22 µM | –
